Assay results as given in paper PMC8286840, “Identifying SARS-CoV-2 antiviral compounds by screening for small molecule inhibitors of Nsp3 papain-like protease” (Biochemical Journal, 2021).
Counter-ions that a name gives are not always drawn. Like-named read-outs stand apart in the source and are kept apart here.

Columns and labels:
[1] = biological target: T1, SARS-CoV-2 PLpro (nsp3 1564–1878) (Severe acute respiratory syndrome coronavirus 2, UniProt P0DTD1); experiment: biochemical; parameters: FRET-quenched peptide (Pro3) cleavage by PLpro, 10 min pre-incubation, slope over 20 min, normalised to no-compound control; settings: low concentration screen, read-out: % of control remaining
[2] = biological target: T1, SARS-CoV-2 PLpro (nsp3 1564–1878); experiment: biochemical; parameters: FRET-quenched peptide (Pro3) cleavage by PLpro, 10 min pre-incubation, slope over 20 min, normalised to no-compound control; settings: high concentration screen, read-out: % of control remaining

N#CC(=C(/N)Sc1ccccc1N)/C(C#N)=C(\N)Sc1ccccc1N [U0126 - 1,4-Diamino-2,3-dicyano-1,4-bis[2-aminophenylthio]butadiene]
remaining activity at 1.25 µM ([1]; Well no.=2346): 96.1%
remaining activity at 3.75 µM ([2]; Well no.=2346): 96.8%

O=C1c2cccc3c2[C@H](CCC3)CN1[C@@H]1CN2CCC1CC2 [Palonosetron HCl]
remaining activity at 1.25 µM ([1]; Well no.=4923): 99.3%
remaining activity at 3.75 µM ([2]; Well no.=4923): 98.2%

CCCN1CCC[C@@H](c2cccc(C#N)c2)C1 [S(-)-DS 121 hydrochloride]
remaining activity at 1.25 µM ([1]; Well no.=596): 100%
remaining activity at 3.75 µM ([2]; Well no.=596): 101%

CCOC(=O)[C@H](CCc1ccccc1)N[C@H]1CS[C@H](c2cccs2)CN(CC(=O)O)C1=O [Temocapril HCl]
remaining activity at 1.25 µM ([1]; Well no.=4764): 106%
remaining activity at 3.75 µM ([2]; Well no.=4764): 109%

Cc1ccc(Cl)c(Nc2ccccc2C(=O)O)c1Cl [Meclofenamic acid sodium salt]
remaining activity at 1.25 µM ([1]; Well no.=5492): 104%
remaining activity at 3.75 µM ([2]; Well no.=5492): 106%

Cc1ccc(C)c(-c2cc(C(F)(F)F)nn2-c2ccc(S(N)(=O)=O)cc2)c1 [4-[5-(2,5-dimethylphenyl)-3-(trifluoromethyl)-1H-pyrazol-1-yl]benzenesulfonamide]
remaining activity at 1.25 µM ([1]; Well no.=5924): 97.9%
remaining activity at 3.75 µM ([2]; Well no.=5924): 89.1%

O=C(CO)N1CCC(c2n[nH]c(-c3ccc(Cl)cc3)c2-c2ccncn2)CC1 [SD-06]
remaining activity at 1.25 µM ([1]; Well no.=2897): 99.5%
remaining activity at 3.75 µM ([2]; Well no.=2897): 97%

Cc1cc(NC(=O)NCCN2CCC(O)(Cc3ccccc3)CC2)c2ccccc2n1 [Palosuran]
remaining activity at 1.25 µM ([1]; Well no.=7915): 105%
remaining activity at 3.75 µM ([2]; Well no.=7915): 92.5%

Cc1cccc(Nc2ccccc2C(=O)O)c1C [Mefenamic acid]
remaining activity at 1.25 µM ([1]; Well no.=1951): 97.7%
remaining activity at 3.75 µM ([2]; Well no.=1951): 99.7%

Nc1ccc(S(=O)(=O)Nc2nccs2)cc1 [Sulfathiazole (sodium)]
remaining activity at 1.25 µM ([1]; Well no.=7404): 104%
remaining activity at 3.75 µM ([2]; Well no.=7404): 102%

CC(C)(C(=O)O)c1ccc(C(O)CCCN2CCC(C(O)(c3ccccc3)c3ccccc3)CC2)cc1 (centres unmarked) [Fexofenadine hydrochloride]
remaining activity at 1.25 µM ([1]; Well no.=425): 93.1%
remaining activity at 3.75 µM ([2]; Well no.=425): 92.8%

CCCCCCC(=O)CCCCCC/C=C/C[C@@H](O)[C@H](O)[C@@](N)(CO)C(=O)O [Myriocin]
remaining activity at 1.25 µM ([1]; Well no.=3417): 99.6%
remaining activity at 3.75 µM ([2]; Well no.=3417): 101%

C[C@H](CCC(=O)NCC(=O)O)[C@H]1CC[C@H]2[C@@H]3[C@H](O)C[C@@H]4C[C@H](O)CC[C@]4(C)[C@H]3C[C@H](O)[C@]12C [Glycocholic acid]
remaining activity at 1.25 µM ([1]; Well no.=7068): 106%
remaining activity at 1.25 µM ([1]; Well no.=7165): 104%
remaining activity at 3.75 µM ([2]; Well no.=7068): 105%
remaining activity at 3.75 µM ([2]; Well no.=7165): 101%

CCCCCC(O)c1cccc(OCc2ccc3ccccc3n2)c1 (centres unmarked) [REV 5901]
remaining activity at 1.25 µM ([1]; Well no.=1158): 104%
remaining activity at 3.75 µM ([2]; Well no.=1158): 101%

CC(=O)OCC1=C(C(=O)O)N2C(=O)[C@@H](NC(=O)Cc3cccs3)[C@H]2SC1 [Cephalothin sodium]
remaining activity at 1.25 µM ([1]; Well no.=224): 93.6%
remaining activity at 3.75 µM ([2]; Well no.=224): 96.4%

COc1ccc(S(=O)(=O)Nc2cccnc2Nc2ccc(O)cc2)cc1 [ABT-751]
remaining activity at 1.25 µM ([1]; Well no.=5226): 91.8%
remaining activity at 3.75 µM ([2]; Well no.=5226): 92.1%

CC(=O)N[C@H]1[C@@H](O[C@@H]2O[C@H](C[C@@H](O)[C@@H]3O[C@H](n4ccc(=O)[nH]c4=O)[C@@H](O)[C@H]3O)[C@H](O)[C@H](O)[C@H]2NC(=O)/C=C/CCCCCCCCCCC(C)C)O[C@H](CO)[C@@H](O)[C@@H]1O [Tunicamycin B]
remaining activity at 1.25 µM ([1]; Well no.=3190): 104%
remaining activity at 3.75 µM ([2]; Well no.=3190): 103%

N=C(N)NC(=O)Cc1c(Cl)cccc1Cl [Guanfacine.HCl]
remaining activity at 1.25 µM ([1]; Well no.=1894): 95.7%
remaining activity at 3.75 µM ([2]; Well no.=1894): 95.2%

N[C@@H](CCO)C(=O)O [L-Homoserine]
remaining activity at 1.25 µM ([1]; Well no.=6821): 100%
remaining activity at 3.75 µM ([2]; Well no.=6821): 101%

CC(=O)Nc1nc2c(Oc3cc(-c4ccc(C(F)(F)F)cc4)ncn3)cccc2s1 [AMG-517]
remaining activity at 1.25 µM ([1]; Well no.=5176): 102%
remaining activity at 3.75 µM ([2]; Well no.=5176): 99.6%

CCCn1c(=O)c2[nH]c(C3CCCC3)nc2n(CCC)c1=O [8-Cyclopentyl-1,3-dipropylxanthine]
remaining activity at 1.25 µM ([1]; Well no.=675): 93.6%
remaining activity at 3.75 µM ([2]; Well no.=675): 97.1%
